Results: ChEMBL document CHEMBL4041467, “Synthesis of novel 15-membered 8a-azahomoerythromycin A acylides: Consequences of structural modification at the C-3 and C-6 position on antibacterial activity” (Eur J Med Chem, 2017)
≈ marks a conversion by molar mass, not a printed value.

Assays:
[1] = AUC(0 to infinity) in Han Wistar rat at 10 mg/kg, iv by LC-MS/MS analysis; format: ADME, organism-based; design: dose 10 mg/kg, route intravenous, time infinity; conditions: in vivo
[2] = AUC(0 to infinity) in Han Wistar rat at 20 mg/kg, po by LC-MS/MS analysis; format: ADME, organism-based; design: dose 20 mg/kg, time infinity, route oral; conditions: in vivo
[3] = tested on: Staphylococcus aureus; assay: Potency index, ratio of clarithromycin ED50 to compound ED50 for erythromycin susceptible Staphylococcus aureus infected in mouse; format: functional
[4] = tested on: Streptococcus pneumoniae; assay: Potency index, ratio of clarithromycin ED50 to compound ED50 for erythromycin susceptible Streptococcus pneumoniae infected in mouse; format: functional
[5] = Metabolic stability in human liver microsomes assessed as parent compound remaining at 1 uM after 60 mins in presence of NADP by LC-MS/MS analysis; format: ADME, microsome; conditions: read-out: Stability
[6] = Metabolic stability in mouse liver microsomes assessed as parent compound remaining at 1 uM after 60 mins in presence of NADP by LC-MS/MS analysis; format: ADME, microsome; conditions: read-out: Stability
[7] = Terminal half life in Han Wistar rat at 10 mg/kg, iv by LC-MS/MS analysis; format: ADME, organism-based; conditions: in vivo, read-out: beta t1/2 (converted)
[8] = Cmax in Han Wistar rat at 10 mg/kg, iv by LC-MS/MS analysis; format: ADME, organism-based; design: dose 10 mg/kg, route intravenous; conditions: in vivo
[9] = tested on: Streptococcus pyogenes; assay: Antibacterial activity against constitutively macrolide/lincosamide/streptogramin B-resistant Streptococcus pyogenes by agar microdilution method; format: functional
[10] = tested on: Staphylococcus aureus; assay: Antibacterial activity against inducibly macrolide/lincosamide/streptogramin B-resistant Staphylococcus aureus by agar microdilution method; format: functional
[11] = Oral bioavailability in Han Wistar rat at 20 mg/kg by LC-MS/MS analysis; format: ADME, organism-based; conditions: in vivo
[12] = Protein binding in rat plasma at 1 ug/ml by LC-MS/MS analysis; format: ADME, cell-free; conditions: read-out: PPB (converted)
[13] = tested on: Streptococcus pyogenes; assay: Antibacterial activity against Mef-mediated macrolide efflux resistant Streptococcus pyogenes by agar microdilution method; format: functional
[14] = tested on: Haemophilus influenzae; assay: Antibacterial activity against Haemophilus influenzae by agar microdilution method; format: functional
[15] = Cmax in Han Wistar rat at 20 mg/kg, po by LC-MS/MS analysis; format: ADME, organism-based; design: dose 20 mg/kg, route oral; conditions: in vivo
[16] = tested on: Streptococcus pneumoniae; assay: Antibacterial activity against Mef-mediated macrolide efflux resistant Streptococcus pneumoniae by agar microdilution method; format: functional
[17] = tested on: Streptococcus pneumoniae; assay: Antibacterial activity against constitutively macrolide/lincosamide/streptogramin B-resistant Streptococcus pneumoniae by agar microdilution method; format: functional
[18] = tested on: Streptococcus pyogenes; assay: Antibacterial activity against erythromycin susceptible Streptococcus pyogenes by agar microdilution method; format: functional
[19] = tested on: Streptococcus pneumoniae; assay: Antibacterial activity against erythromycin susceptible Streptococcus pneumoniae infected in mouse assessed as increase in mouse survival administered orally 1 hr post infection; format: functional; conditions: po
[20] = tested on: Plasma; assay: Stability in rat plasma at 1 uM up to 120 mins by LC-MS/MS analysis; format: ADME, cell-free; conditions: 2 h
[21] = Tmax in Han Wistar rat at 20 mg/kg, po by LC-MS/MS analysis; format: ADME, organism-based; conditions: in vivo
[22] = tested on: Liver; assay: Intrinsic clearance in human liver microsomes at 1 uM after 60 mins in presence of NADP by LC-MS/MS analysis; format: ADME, microsome; conditions: 1 h
[23] = tested on: Liver; assay: Intrinsic clearance in rat liver microsomes at 1 uM after 60 mins in presence of NADP by LC-MS/MS analysis; format: ADME, microsome; conditions: 1 h
[24] = Metabolic stability in rat liver microsomes assessed as parent compound remaining at 1 uM after 60 mins in presence of NADP by LC-MS/MS analysis; format: ADME, microsome; conditions: read-out: Stability
[25] = Volume of distribution at steady state in Han Wistar rat at 10 mg/kg, iv by LC-MS/MS analysis; format: ADME, organism-based; conditions: in vivo, read-out: Vdss
[26] = tested on: Liver; assay: Intrinsic clearance in mouse liver microsomes at 1 uM after 60 mins in presence of NADP by LC-MS/MS analysis; format: ADME, microsome; conditions: 1 h
[27] = AUC(0 to t) in Han Wistar rat at 10 mg/kg, iv by LC-MS/MS analysis; format: ADME, organism-based; conditions: in vivo
[28] = Clearance in Han Wistar rat at 10 mg/kg, iv by LC-MS/MS analysis; format: ADME, organism-based; conditions: in vivo
[29] = Protein binding in mouse plasma at 1 ug/ml by LC-MS/MS analysis; format: ADME, cell-free; conditions: read-out: PPB (converted)
[30] = tested on: Staphylococcus aureus; assay: Antibacterial activity against erythromycin susceptible Staphylococcus aureus infected in mouse assessed as increase in mouse survival administered orally 1 hr post infection; format: functional; conditions: po
[31] = tested on: Staphylococcus aureus; assay: Antibacterial activity against erythromycin susceptible Staphylococcus aureus by agar microdilution method; format: functional
[32] = tested on: Staphylococcus aureus; assay: Antibacterial activity against constitutively macrolide/lincosamide/streptogramin B-resistant Staphylococcus aureus by agar microdilution method; format: functional
[33] = (§1) Protein binding in human plasma at 1 ug/ml by LC-MS/MS analysis; format: ADME, cell-free; conditions: read-out: PPB (converted)
[34] = Fraction unbound in Han Wistar rat plasma at 10 mg/kg, iv by LC-MS/MS analysis; format: ADME, organism-based
[35] = tested on: Streptococcus pneumoniae; assay: Antibacterial activity against erythromycin susceptible Streptococcus pneumoniae by agar microdilution method; format: functional
[36] = AUC(0 to t) in Han Wistar rat at 20 mg/kg, po by LC-MS/MS analysis; format: ADME, organism-based; conditions: in vivo
[37] = tested on: Rattus norvegicus; assay: Unbound clearance in Han Wistar rat at 10 mg/kg, iv by LC-MS/MS analysis; format: ADME, organism-based; conditions: in vivo
[38] = tested on: Plasma; assay: Drug uptake in Han Wistar rat plasma at 30 mg/kg, po up to 4 hrs by LC-MS/MS analysis; format: ADME, organism-based; conditions: in vivo
[39] = Tmax in Han Wistar rat at 30 mg/kg, po by LC-MS/MS analysis; format: ADME, organism-based; conditions: in vivo
[40] = tested on: Plasma; assay: Drug uptake in Han Wistar rat plasma at 10 mg/kg, iv up to 8 hrs by LC-MS/MS analysis; format: ADME, organism-based; conditions: in vivo
[41] = Oral bioavailability in Han Wistar rat at 30 mg/kg by LC-MS/MS analysis; format: ADME, organism-based; conditions: in vivo
[42] = AUC(0 to t) in Han Wistar rat at 30 mg/kg, po by LC-MS/MS analysis; format: ADME, organism-based; conditions: in vivo
[43] = Cmax in Han Wistar rat at 30 mg/kg, po by LC-MS/MS analysis; format: ADME, organism-based; design: dose 30 mg/kg, route oral; conditions: in vivo
[44] = AUC(0 to infinity) in Han Wistar rat at 30 mg/kg, po by LC-MS/MS analysis; format: ADME, organism-based; design: dose 30 mg/kg, time infinity, route oral; conditions: in vivo
[45] = tested on: Staphylococcus aureus; assay: Ratio of MIC for inducibly macrolide/lincosamide/streptogramin B-resistant Staphylococcus aureus to MIC for erythromycin susceptible Staphylococcus aureus; format: functional
[46] = tested on: Plasma; assay: as §1; format: ADME, cell-free

Structure (SMILES)	AUC(0-inf) [1] [ng·h/mL]	remaining at 1 h, 1 µM [5] [%]	remaining at 1 h, 1 µM [6] [%]	half-life [7] [h]	Cmax [8] [ng/mL]	MIC [9] [µg/mL]	MIC [10] [µg/mL]	fraction unbound at 1 ug/ml [12]	MIC [13] [µg/mL]	MIC [14] [µg/mL]	MIC [17] [µg/mL]	MIC [18] [µg/mL]	ED50 [19] [mg/kg]	remaining at 1 h, 1 µM [24] [%]	fraction unbound at 1 ug/ml [29]	ED50 [30] [mg/kg]	MIC [31] [µg/mL]	MIC [32] [µg/mL]	fraction unbound at 1 ug/ml [33]	MIC [35] [µg/mL]	also measured
CC[C@H]1OC(=O)[C@H](C)[C@@H](OC(=O)CCNCCNc2cc3c(=O)c(C(=O)O)cn(C4CC4)c3cc2Cl)[C@H](C)[C@@H](O[C@@H]2O[C@H](C)C[C@H](N(C)C)[C@H]2O)[C@](C)(OC/C=C/c2cnc3ccccc3c2)C[C@@H](C)NC(=O)[C@H](C)[C@@H](O)[C@]1(C)O	8510	100	100	4.3	2480	4 (≈ 3.53 µM)	0.25 (≈ 0.221 µM)	0.42	0.25 (≈ 0.221 µM)	1 (≈ 0.882 µM)	≤ 0.125	≤ 0.06	4.5	100	0.3	6	≤ 0.125	> 64	0.4	≤ 0.06	AUC(0-inf) [2]: 7500 ng·h/mL; Ratio ED50 [3]: 4; Ratio ED50 [4]: 6; bioavailability [11]: 41.8%; Cmax [15]: 630 ng/mL; MIC [16]: ≤ 0.125 µg/mL; Stability [20]: Stable; Tmax [21]: 3.3 h; CLH [22]: < 0.6 mL/min/g; CLH [23]: < 0.6 mL/min/g; Vd [25]: 6.7 L/kg; CLH [26]: < 0.6 mL/min/g; AUC(0-t) [27]: 4800 to 10000 ng·h/mL; clearance [28]: 20.3 mL/min/kg; fraction unbound [34]: 0.42; AUC(0-t) [36]: 2040 to 9730 ng·h/mL; CL free [37]: 48.3 mL/min/kg
C=CCO[C@]1(C)C[C@@H](C)NC(=O)[C@H](C)[C@@H](O)[C@](C)(O)[C@@H](CC)OC(=O)[C@H](C)[C@@H](OC(=O)CCNCCNc2cc3c(=O)c(C(=O)O)cn(C4CC4)c3cc2Cl)[C@H](C)[C@H]1O[C@@H]1O[C@H](C)C[C@H](N(C)C)[C@H]1O	4080	99	100	1.6	3870	4 (≈ 3.97 µM)	0.25 (≈ 0.248 µM)	0.63	0.25 (≈ 0.248 µM)	2 (≈ 1.99 µM)	1 (≈ 0.993 µM)	≤ 0.125	46.5	100	0.45	26.5	≤ 0.125	> 64	0.51	≤ 0.125	Drug uptake [38]: Active; Tmax [39]: 0.31 h; Drug uptake [40]: Active; bioavailability [41]: 4.9%; AUC(0-t) [42]: 50 to 520 ng·h/mL; Stability [20]: Stable; Cmax [43]: 440 ng/mL; CLH [22]: < 0.6 mL/min/g; CLH [23]: < 0.6 mL/min/g; Vd [25]: 3.2 L/kg; CLH [26]: < 0.6 mL/min/g; AUC(0-t) [27]: 2450 to 5340 ng·h/mL; clearance [28]: 44.7 mL/min/kg; AUC(0-inf) [44]: 510 ng·h/mL; fraction unbound [34]: 0.63; CL free [37]: 71 mL/min/kg
CC[C@H]1OC(=O)[C@H](C)[C@@H](O[C@H]2C[C@@](C)(OC)[C@@H](O)[C@H](C)O2)[C@H](C)[C@@H](O[C@@H]2O[C@H](C)C[C@H](N(C)C)[C@H]2O)[C@](C)(O)C[C@@H](C)CN(C)[C@H](C)[C@@H](O)[C@]1(C)O [AZITHROMYCIN]	–	100	100	–	–	> 64	> 64	0.72	1 (≈ 1.34 µM)	1 (≈ 1.34 µM)	> 64	≤ 0.125	–	100	0.73	–	1 (≈ 1.34 µM)	> 64	0.64	≤ 0.125	Ratio [45]: 64; MIC [16]: 4 µg/mL (≈ 5.34 µM)
CC[C@H]1OC(=O)[C@H](C)[C@@H](O[C@H]2C[C@@](C)(OC)[C@@H](O)[C@H](C)O2)[C@H](C)[C@@H](O[C@@H]2O[C@H](C)C[C@H](N(C)C)[C@H]2O)[C@](C)(OC)C[C@@H](C)C(=O)[C@H](C)[C@@H](O)[C@]1(C)O [CLARITHROMYCIN]	–	91	100	–	–	–	–	1	–	–	–	–	27.2 to 34.6	92.5	0.88	22.4 to 24.8	–	–	–	–	PPB [46]: 11%
CC[C@H]1OC(=O)[C@H](C)C(=O)[C@H](C)[C@@H](O[C@@H]2O[C@H](C)C[C@H](N(C)C)[C@H]2O)[C@](C)(OC)C[C@@H](C)C(=O)[C@H](C)[C@H]2N(CCCCn3cnc(-c4cccnc4)c3)C(=O)O[C@]12C [TELITHROMYCIN]	3950	–	–	1.7	1850	4 (≈ 4.93 µM)	0.25 (≈ 0.308 µM)	0.56	0.25 (≈ 0.308 µM)	2 (≈ 2.46 µM)	≤ 0.125	≤ 0.06	7.2	–	0.41	5	≤ 0.125	> 64	0.5	≤ 0.06	AUC(0-inf) [2]: 2730 ng·h/mL; bioavailability [11]: 33%; Cmax [15]: 340 ng/mL; MIC [16]: ≤ 0.125 µg/mL; Tmax [21]: 2.3 h; Vd [25]: 5.6 L/kg; clearance [28]: 42.5 mL/min/kg; fraction unbound [34]: 0.56; CL free [37]: 75.9 mL/min/kg
